According to patent US20220152117A1, “METHODS OF PROMOTING CELLULAR MATURATION WITH AMPK ACTIVATORS” (UNIVERSITY OF WASHINGTON, priority 2019, published 2022):
“Also recorded” adds a separate entry of the source.

Key:
hPSC-CMs = assay: Western blotting with phospho-specific antibodies (pACC, pAMPK, pAkt, pERK, p-p38-MAPK); assay type: cell-based, human
Experimental: Total protein was acquired from control cardiomyocytes or cardiomyocytes after two weeks of AICAR treatment and subjected to SDS-PAGE. The lanes were loaded with equal amount of protein and were checked by Ponceau S staining. After blocking with 5% milk, the membranes were incubated with anti-pACC ([…]) rabbit polyclonal antibody (Cell Signaling Technology), anti-pAMPK, anti-pAkt, anti-pERK, anti-p38-MAPK, or anti-GAPDH mouse monoclonal antibody (Abcam) overnight while shaking at 4° C. After incubation with anti-rabbit (for pACC) and anti-mouse (for GAPDH, pAMPK, pAkt, pERK, and p-p38-MAPK) horseradish peroxidase-coupled secondary antibody (Santa Cruz Biotechnology®), bands were visualized with SuperSignal West Femto Trial KitTM (Thermo Scientific®). The immunoblots band densities were analyzed in Image J.

hiPSC-CMs = assay: mtDNA to nDNA ratio by q-PCR in cardiomyocytes; assay type: cell-based, human; conditions: relative to control hiPSC-CMs
Description: Mitochondrial DNA (mtDNA) to nuclear DNA (nDNA) ratio was estimated by q-PCR. For this purpose, a mtDNA fragment within the NADH dehydrogenase 1 (ND 1) gene and a region of the nuclear DNA-encoded lipoprotein lipase gene (LPL) were amplified. The primer sequences for ND 1 and LPL were adapted from^30. Total DNA was extracted using Qiagen DNeasy Kit™.

hiPSC-derived neurons [1] = assay: mtDNA:nDNA ratio by quantitative PCR in neurons; assay type: cell-based, human; conditions: two weeks of treatment with AICAR every third day
[2] = system: neurons derived from an FAD patient cell line harboring a duplication of the APP gene; assay: Secreted amyloid beta peptides in neuronal culture media by ELISA; assay type: cell-based, human; conditions: three-week neuronal differentiation, at each week
Experimental: Undifferentiated human IMR90-induced pluripotent stem cells, originally derived from lung fibroblasts^22 (James A. Thomson, University of Wisconsin-Madison), were expanded using mouse embryonic fibroblast-conditioned medium supplemented with 5 ng/ml basic fibroblast growth factor. Cardiomyocytes were obtained using a previously described protocol^2 that involves the serial application of activin A and bone morphogenetic protein-4 (BMP4) under serum-free, monolayer culture conditions. The cultures were also supplemented with the Wnt agonist CHIR99021 in the early stages of differentiation followed by the Wnt antagonist Xav939. In this study, cardiomyocytes derived from human undifferentiated IMR90-induced stem cells were used, and for brevity, these are referred to human induced pluripotent stem cell-derived cardiomyocytes (hiPSC-CM). After 20 days of in vitro differentiation, the cells were dispersed using 0.05% trypsin-EDTA and re-plated. Cultures were fed every other day thereafter with serum-free RPMI-B27 plus insulin. Only cell preparations containing >80% cardiac troponin T-positive cardiomyocytes (by flow cytometry) were used for the current investigation. […]
Secreted Amyloid beta (Ab) peptides were measured from the neuronal culture media at one, two and three-week time points after AICAR treatment by ELISA assay (Meso Scale Discovery®).

hiPS-HLCs = assay: RT-PCR of hepatic and mitochondrial-related genes in hepatocyte-like cells; assay type: cell-based, human
Experimental: Undifferentiated human IMR90-induced pluripotent stem cells, originally derived from lung fibroblasts^22 (James A. Thomson, University of Wisconsin-Madison), were expanded using mouse embryonic fibroblast-conditioned medium supplemented with 5 ng/ml basic fibroblast growth factor. Cardiomyocytes were obtained using a previously described protocol^2 that involves the serial application of activin A and bone morphogenetic protein-4 (BMP4) under serum-free, monolayer culture conditions. The cultures were also supplemented with the Wnt agonist CHIR99021 in the early stages of differentiation followed by the Wnt antagonist Xav939. In this study, cardiomyocytes derived from human undifferentiated IMR90-induced stem cells were used, and for brevity, these are referred to human induced pluripotent stem cell-derived cardiomyocytes (hiPSC-CM). After 20 days of in vitro differentiation, the cells were dispersed using 0.05% trypsin-EDTA and re-plated. Cultures were fed every other day thereafter with serum-free RPMI-B27 plus insulin. Only cell preparations containing >80% cardiac troponin T-positive cardiomyocytes (by flow cytometry) were used for the current investigation. Twenty days after induction, cells were re-plated at different densities based on experimental purposes (described below). Cells were treated with 1 mM AICAR for two weeks (unless otherwise mentioned specifically), with media being changed every other day. This study was mainly performed with cardiomyocytes-derived from IMR90 iPS cell line. However, cardiomyocytes-derived from another iPS cell line, WTC11 iPS cells^22, and a human embryonic stem cell line (hESC), RUES2 cells, were also used for some of the experiments. Rues and WTC undifferentiated cells were cultured with mTeSR medium. Similar differentiation protocols as to IMR90 were used to obtain cardiomyocytes from Rues and WTC cells. Only cell preparations containing >80% cardiac troponin T-positive cardiomyocytes (by flow cytometry) were used for the current investigation. Undifferentiated iPSCs were maintained on StemAdhere™ (Primorigin Biosciences®) with mTesR medium supplemented with bFGF. The formation of hepatocyte-like cells from iPSCs was achieved as described previously^24,25. Briefly, cells were induced to form endoderm by addition of 100 ng/ml Activin A, 10 ng/ml BMP4, and 20 ng/ml FGF2 for two days followed by 100 ng/ml Activin A for an additional three days. Hepatic progenitor cells were formed by supplementing the medium with 20 ng/ml BMP4 and 10 ng/ml FGF2. Next, 20 ng/ml HGF was added between days 10 and 15 and induced maturation of the hepatocytes by culturing the cells in HCM medium (Lonza®) containing 20 ng/ml Oncostatin M until day 20. In some experiments, the differentiation medium was supplemented with 1.0 mM AICAR between days 15 and 20. hiPSC-derived neurons were generated following previously published protocols^26, 27, 28. Briefly, hiPSCs from a control individual^28 and from a patient with the duplication of the amyloid precursor protein (APP) gene^27 were cultured on mouse embryonic fibroblasts in the presence of 20 ng/ml bFGF (Peprotech®). Neural stem cells were generated by hiPSC co-culture on the mouse stromal cell line PA6 in the presence of 0.5 ug/ml Noggin (Peprotech®) and 10 uM SB431542 (Peprotech®). After 12 days, neural rosettes were dissociated and FACS sorted for the cell surface markers CD184/CD24^+; CD44/CD271^−. Neural stem cells were propagated in 20 ng/ml bFGF and neuronal differentiation was induced by the withdrawal of bFGF and the addition of 20 ng/ml BDNF (Peprotech®), 20 ng/ml GDNF (Peprotech®), […] dbCAMP (Peprotech®).
Total RNA was isolated using the Qiagen RNeasy Kit™, and mRNA was reverse transcribed using the Superscript™ III first strand cDNA synthesis kit (Invitrogen®). All primers were purchased from Real Time Primers, and qRT-PCR was performed using SYBR™ green chemistry and an ABI 7900HT instrument or TAQMAN™ with BIORad CXF384™. […]

L6 myotube = conditions: literature study (ref 44); cited from earlier work
hiPSC-derived neurons [3] = assay: Quantitative RT-PCR gene expression in neurons; assay type: cell-based, human
[4] = HLCs treated at day 20 with 1 mM AICAR for additional seven days
[5] = normalized to HPRT then to control cells

## NC(=O)c1ncn([C@@H]2O[C@H](CO)[C@@H](O)[C@H]2O)c1N [AICAR, 5-amino-4-imidazolecarboxamide riboside-1-β-D-ribofuranoside]
hPSC-CMs; 1 mM AICAR, time course
  phopho-p38-MAPK: Transient increases
  phospho-ERK: Transient increases
  phospho-Thr172-AMPK phosphorylation: rapid robust transient
  phosphorylation of Akt at Ser473: increased
  phosphorylation of Ser79-ACC: rapid, time-dependent increase
hPSC-CMs; two weeks of AICAR treatment, same exposure conditions
  phospho-ACC (Ser 79) level by immunoblot vs control cells: more than one thousand-fold increase
hiPSC-CMs
  increase in the ratio of mtDNA to nDNA: 55%
hiPSC-derived neurons [1]
  mtDNA/nDNA ratio in neurons: increase
[2]
  levels of secreted Ab1-40 peptides: significantly reduced
  levels of secreted Ab1-42 peptides: significantly reduced
hiPS-HLCs; 1 mM AICAR day 15 to 17
  HNF4α expression, treatment day 15 to 17: significantly down-regulated
  other mature hepatic-related genes (SLC10A1, APOH, ASGR, APOB, and PXR): no significant difference
hiPS-HLCs; 1 mM AICAR day 15 to 17, endpoint day 20
  AFP expression, treatment day 15 to 17: diminished; also recorded: significantly reduced
hiPS-HLCs; 1 mM AICAR day 15 to 17, endpoint day 20, b310 calls the change non-significant
  ALB expression, treatment day 15 to 17: enhanced
hiPS-HLCs; 1 mM AICAR, longer treatment between days 15 and 20, endpoint day 20
  ALB expression, longer treatment: adversely affected
hiPS-HLCs; [4]
  PDK4 expression in HLCs: significantly increased
  PGC1α, ERRa, PPARα, TFAM and HNF4α expression in HLCs: no significant effect
L6 myotube
  ERK phosphorylation in L6 myotube: leads to ERK phosphorylation
hiPSC-derived neurons [3]; compared to control neurons
  NeuN mRNA in neurons: significant increase
hiPSC-derived neurons [3]; [5]
  PPARα expression in neurons: increased
  TFAM expression in neurons: increased
hiPSC-derived neurons [3]; two weeks of treatment with AICAR every third day
  PDK4 expression in neurons: increase
